The assay concerns the target T1, FLT3 D835Y (Homo sapiens, UniProt P36888, D835Y).
T1 construct: purchased DiscoverX (KINOMEscan); host or cells: E. coli (T7 phage) or HEK-293
T1 sequence (P36888 27-993 D835Y): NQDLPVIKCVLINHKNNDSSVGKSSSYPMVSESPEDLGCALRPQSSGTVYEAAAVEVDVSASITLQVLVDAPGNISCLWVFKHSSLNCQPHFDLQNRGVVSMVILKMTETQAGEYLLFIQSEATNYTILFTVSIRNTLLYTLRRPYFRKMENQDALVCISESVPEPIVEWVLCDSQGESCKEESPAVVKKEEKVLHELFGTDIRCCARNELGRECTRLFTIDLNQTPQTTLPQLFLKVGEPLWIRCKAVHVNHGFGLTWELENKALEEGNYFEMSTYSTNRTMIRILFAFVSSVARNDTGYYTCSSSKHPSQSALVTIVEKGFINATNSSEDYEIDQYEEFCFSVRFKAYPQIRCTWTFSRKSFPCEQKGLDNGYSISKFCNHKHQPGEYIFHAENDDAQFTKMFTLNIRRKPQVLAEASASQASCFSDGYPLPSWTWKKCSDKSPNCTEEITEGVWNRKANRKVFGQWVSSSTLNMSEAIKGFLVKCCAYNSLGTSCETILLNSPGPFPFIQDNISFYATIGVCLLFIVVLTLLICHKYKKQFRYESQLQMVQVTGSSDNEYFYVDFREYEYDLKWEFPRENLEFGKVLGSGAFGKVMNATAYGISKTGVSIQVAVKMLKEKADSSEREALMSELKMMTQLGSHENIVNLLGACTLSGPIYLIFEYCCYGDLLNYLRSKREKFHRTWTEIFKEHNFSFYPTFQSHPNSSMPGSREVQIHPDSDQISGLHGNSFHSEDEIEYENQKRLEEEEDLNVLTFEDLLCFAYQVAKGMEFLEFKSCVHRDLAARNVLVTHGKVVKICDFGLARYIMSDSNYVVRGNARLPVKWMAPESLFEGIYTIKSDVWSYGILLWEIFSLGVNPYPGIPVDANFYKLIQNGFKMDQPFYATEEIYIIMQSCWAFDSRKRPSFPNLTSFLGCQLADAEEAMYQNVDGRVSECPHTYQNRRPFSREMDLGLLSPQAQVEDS
The experiment in a line: DiscoverX KINOMEscan competition binding, FLT3 D835Y. The conditions noted are these: no ATP. The text has this: Kinase binding data were obtained for various exemplary compounds prepared according to Examples 2-15 using the DiscoverX KINOMEscan® active site-directed competition binding site-directed assay protocol described below. […] As a result, the data report thermodynamic interaction affinities (Kd values), rather than IC50 values that are dependent on ATP concentrations. The assay uses a DNA-tagged version of the protein kinase, and an immobilized ligand bound to a solid support. Compounds that directly or indirectly prevent kinase binding to the immobilized ligand reduce the amount of kinase captured on the solid support, which is detected using an ultra-sensitive qPCR method. Affinity constants reported from the assay have been reported to be independent of the immobilized ligand used that is coupled to the solid support (See supplemental information in Fabian, M. A. et. al., (2005) Nat. […] Wodicka, L. […] Biol. 17, 1241-1249.) Kinase-tagged T7 phage strains were prepared in an E. coli host derived from the BL21 strain. E. coli were grown to log-phase and infected with T7 phage and incubated with shaking at 32° C. until lysis. […] Kds were determined using an 11-point 3-fold compound dilution series with three DMSO control points. […] The kinase concentration in the eluates was measured by qPCR. Binding constants (Kds) were calculated with a standard dose-response curve using the Hill equation. […]

Molecules are shown by their SMILES.

`COc1cc2ncc(-c3nc(N[C@H]4CNCC[C@@H]4F)c(F)cc3F)n2nc1C1CCC1` [Compound 15a, 6-(6-cyclobutyl-7-methoxyimidazo[1,2-b]pyridazin-3-yl)-3,5-difluoro-N-((3S,4S)-4-fluoropiperidin-3-yl)pyridin-2-amine] had a Kd of less than 0.17 nM.

What is called Kd is the equilibrium constant for the complex coming apart. Low values mean tighter binding, high ones weaker binding.

Values taken from patent publication US20250368648A1, “MULTI-CYCLIC IRAK AND FLT3 INHIBITING COMPOUNDS AND USES THEREOF” (CHILDREN'S HOSPITAL MEDICAL CENTER, priority 2022, published 2025).
